Assay results reported in patent US11141452B2, “Bifunctional compounds for relief of pain comprising an opioid receptor agonist moiety and a NK1 receptor antagonist moiety and methods for treating pain” (THE ARIZONA BOARD OF REGENTS ON BEHALF OF THE UNIVERSITY OF …, priority 2014, dated 2021).
“And” between values parts separate entries of the source, which are not always exact repeats. Equal values may be shown once. Read-outs that look alike come from different tables or passages of the source. Non-standard residues stand in square brackets, D forms with d. Residues, ends and D or L forms follow the SMILES beside them. *: point of attachment. NH(3,5-(CF3)2-benzyl) = FC(F)(F)c1cc(CN*)cc(C(F)(F)F)c1; NMeW = CN[C@@H](Cc1c[nH]c2ccccc12)C(=O)O; NMeF = CN[C@@H](Cc1ccccc1)C(=O)O

Tests used:
NK1R = molecular target: T1, NK1R (Cavia porcellus, UniProt P30547); experiment: GPI/LMMP functional assay at NK1R (agonist and antagonist testing); format: cell-based, guinea pig; conditions: for GPI/LMMP (NK1R) Agonist: agonist activity at the concentration in the cell
T1 construct: The longitudinal muscle with myenteric plexus (LMMP) was carefully separated from the circular muscle; from tissue; host or cells: guinea pig ileum longitudinal muscle with myenteric plexus
T1 sequence (P30547 whole entry): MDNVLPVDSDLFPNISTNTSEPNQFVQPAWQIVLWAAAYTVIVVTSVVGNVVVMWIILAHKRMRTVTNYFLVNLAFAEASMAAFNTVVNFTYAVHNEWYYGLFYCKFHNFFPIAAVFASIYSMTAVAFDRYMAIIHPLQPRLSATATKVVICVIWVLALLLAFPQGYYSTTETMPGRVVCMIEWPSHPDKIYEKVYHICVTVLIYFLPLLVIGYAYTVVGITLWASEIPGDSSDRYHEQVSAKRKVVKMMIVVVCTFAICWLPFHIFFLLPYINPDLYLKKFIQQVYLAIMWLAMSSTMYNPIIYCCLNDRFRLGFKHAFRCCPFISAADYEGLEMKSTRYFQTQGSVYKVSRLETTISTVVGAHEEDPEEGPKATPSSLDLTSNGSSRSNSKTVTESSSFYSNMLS

MOR [1] = experiment: Guinea pig isolated ileum (GPI) functional assay; format: cell-based
DOR [2] = molecular target: DOR (Homo sapiens, UniProt P41143); experiment: Radioligand binding assay at δ opioid receptor; conditions: for Ki: Ki^δ (nM)
DOR (Homo sapiens, UniProt P41143), sequence (P41143 whole entry): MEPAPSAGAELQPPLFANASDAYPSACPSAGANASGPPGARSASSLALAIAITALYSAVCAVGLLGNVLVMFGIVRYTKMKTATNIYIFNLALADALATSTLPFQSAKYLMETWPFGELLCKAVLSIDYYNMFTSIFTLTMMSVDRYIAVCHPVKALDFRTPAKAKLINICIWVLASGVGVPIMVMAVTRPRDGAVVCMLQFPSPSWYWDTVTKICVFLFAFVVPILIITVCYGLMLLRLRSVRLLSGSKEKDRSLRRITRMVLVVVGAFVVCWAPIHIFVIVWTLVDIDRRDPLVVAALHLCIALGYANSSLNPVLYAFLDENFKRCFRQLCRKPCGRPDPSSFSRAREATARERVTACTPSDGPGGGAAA
Method: (§1) Binding affinities of these ligands were measured on radioligand binding assays. […] ([43]).

MOR [3] = experiment: Radioligand binding assay at μ opioid receptor; conditions: for Log[IC50±] (μ): log IC50 ± error; for Ki^μ/Ki^δ: ratio of binding affinities MOR/DOR
Method: as §1

DOR [4] = molecular target: T2, DOR (Mus musculus, UniProt P32300); experiment: Mouse isolated vas deferens (MVD) functional assay; format: cell-based
T2 construct: Male ICR mice under CO2 anesthesia were sacrificed by cervical dislocation and the vasa differentia removed; from tissue; host or cells: mouse vas deferens (ICR mice)
T2 sequence (P32300 whole entry): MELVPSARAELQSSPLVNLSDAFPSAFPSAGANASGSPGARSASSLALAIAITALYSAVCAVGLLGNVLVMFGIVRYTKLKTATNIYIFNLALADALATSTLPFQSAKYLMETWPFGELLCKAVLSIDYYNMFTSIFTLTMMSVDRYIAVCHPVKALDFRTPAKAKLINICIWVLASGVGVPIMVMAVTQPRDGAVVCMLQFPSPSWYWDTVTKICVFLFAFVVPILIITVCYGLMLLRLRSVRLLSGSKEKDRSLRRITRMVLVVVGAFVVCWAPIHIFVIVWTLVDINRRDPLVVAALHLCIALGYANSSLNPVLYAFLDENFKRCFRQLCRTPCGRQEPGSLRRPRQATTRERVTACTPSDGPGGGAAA

hNK1 = molecular target: T3, hNK1 (Homo sapiens, UniProt P25103); experiment: hNK1/CHO cell membrane radioligand binding assay ([3H]SP); conditions: for Ki: Ki^hNK1 (nM), hNK1/CHO membranes, [3H]SP; for Ki^hNK1/Ki^rNK1: ratio human/rat NK1
T3 construct: expressed in transfected cells; host or cells: CHO
T3 sequence (P25103 whole entry): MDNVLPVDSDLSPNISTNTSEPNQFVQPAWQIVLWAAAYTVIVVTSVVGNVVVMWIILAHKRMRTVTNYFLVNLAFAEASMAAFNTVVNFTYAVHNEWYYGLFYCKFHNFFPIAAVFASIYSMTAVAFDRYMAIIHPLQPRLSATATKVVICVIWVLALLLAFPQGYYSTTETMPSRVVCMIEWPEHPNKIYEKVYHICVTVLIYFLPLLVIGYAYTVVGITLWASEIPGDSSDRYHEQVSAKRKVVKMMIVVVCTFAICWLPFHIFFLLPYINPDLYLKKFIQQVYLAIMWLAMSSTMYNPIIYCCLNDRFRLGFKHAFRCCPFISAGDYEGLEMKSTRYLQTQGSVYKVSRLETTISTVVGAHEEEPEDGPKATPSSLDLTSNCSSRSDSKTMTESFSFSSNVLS

rNK1 = rNK1 (Rattus norvegicus, UniProt P14600); experiment: Radioligand binding assay at rat NK1 receptor; conditions: Ki^rNK1 (nM)
rNK1, sequence (P14600 whole entry): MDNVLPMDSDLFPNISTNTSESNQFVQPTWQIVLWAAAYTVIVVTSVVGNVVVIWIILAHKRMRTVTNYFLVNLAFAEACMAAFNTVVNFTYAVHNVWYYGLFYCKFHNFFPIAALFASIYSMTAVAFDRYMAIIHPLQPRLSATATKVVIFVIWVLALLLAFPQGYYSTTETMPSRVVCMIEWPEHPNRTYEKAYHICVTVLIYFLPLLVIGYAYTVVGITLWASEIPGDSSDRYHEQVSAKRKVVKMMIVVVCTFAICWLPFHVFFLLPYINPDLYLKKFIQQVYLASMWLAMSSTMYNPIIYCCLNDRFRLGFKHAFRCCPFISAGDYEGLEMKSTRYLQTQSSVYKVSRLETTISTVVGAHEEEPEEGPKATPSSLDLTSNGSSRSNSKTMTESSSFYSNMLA
Method: as §1

[5] = GPI/LMMP (NK1R) Ke (nM) ± S.E.M., antagonist activity
[6] = agonist activity, electrically stimulated tissue, read-out: GPI (MOR) IC50
[7] = MVD (DOR) IC50 (nM), agonist activity, electrically stimulated tissue
[8] = antagonist activity, read-out: GPI/LMMP (NK1R) Ke (nM) ± S.E.M.

Structure (SMILES) | IC50 (MOR [1]; [6]) | IC50 (DOR [2]) [nM] | Ki (MOR [3]) [nM] | Log[IC50±] (μ) (MOR [3]) | IC50 (DOR [4]; [7]) [nM] | higher agonist activity at DOR compared to MOR (functional assays) (DOR [4]) [times] | GPI/LMMP (NK1R) Agonist (NK1R) | GPI/MVD IC50 ratio (MOR [1]) | Ki (hNK1) [nM] | Ki^hNK1/Ki^rNK1 (hNK1) | other results
CCCC[C@H](NC(=O)[C@H](Cc1ccccc1)N(C)C(=O)CNC(=O)[C@@H](C)NC(=O)[C@@H](N)Cc1ccc(O)cc1)C(=O)N1CCC[C@H]1C(=O)N[C@@H](CC(C)C)C(=O)N[C@@H](Cc1c[nH]c2ccccc12)C(=O)NCc1cc(C(F)(F)F)cc(C(F)(F)F)c1 [AKG112, H-Tyr-D-Ala-Gly-NMePhe-Nle-Pro-Leu-Trp-NH-Bn(3′,5′-(CF3)2)] | 718 nM | 50.1 | 13 | −7.51 ± 0.04 | 11.6 ± 2.55 |  |  |  |  |  | Kb (NK1R; [5]): 5.4 ± 2.1 nM
CC(C)C[C@H](NC(=O)[C@@H]1CCCN1C(=O)[C@H](Cc1ccc(O)cc1)NC(=O)CNC(=O)[C@H](Cc1ccccc1)NC(=O)[C@@H](C)NC(=O)[C@@H](N)Cc1ccc(O)cc1)C(=O)N[C@@H](Cc1c[nH]c2ccccc12)C(=O)NCc1cc(C(F)(F)F)cc(C(F)(F)F)c1 [AKG114] (H-Y[dA]FGYPLW-{NH(3,5-(CF3)2-benzyl)}) | 110 nM and 112 nM |  | 4 | −8.02 ± 0.04 |  | 4 |  |  |  |  | Kb (NK1R; [8]): 15 nM
Cc1cc(O)cc(C)c1C[C@H](N)C(=O)N[C@H](C)C(=O)NCC(=O)N[C@@H](Cc1ccccc1)C(=O)N1CCC[C@H]1C(=O)N[C@@H](CC(C)C)C(=O)N[C@@H](Cc1c[nH]c2ccccc12)C(=O)NCc1cc(C(F)(F)F)cc(C(F)(F)F)c1 [AKG116, H-Dmt-D-Ala-Gly-Phe-Pro-Leu-Trp-NH-Bn(3′,5′-(CF3)2)] | 80.8 nM | 2.19 | 3 | −8.63 ± 0.04 | 3.1 | 26 | None at 100 nM | 26/1 | 1.4 | 1/19 | Kb (NK1R; [8]): 25 nM and 24.9 nM; Ki (DOR [2]): 1 nM; Ki^μ/Ki^δ (MOR [3]): 3/1
CC(C)C[C@H](NC(=O)[C@@H]1CCCN1C(=O)[C@H](Cc1ccccc1)N(C)C(=O)CNC(=O)[C@@H](C)NC(=O)[C@@H](N)Cc1ccc(O)cc1)C(=O)N[C@@H](Cc1c[nH]c2ccccc12)C(=O)NCc1cc(C(F)(F)F)cc(C(F)(F)F)c1 [AKG117, H-Tyr-D-Ala-Gly-NMePhe-Pro-Leu-Trp-NH-Bn(3′,5′-(CF3)2)] | 230 nM and 232 nM |  |  | −7.05 ± 0.04 | 100 |  |  |  |  |  | 
CC(C)C[C@H](NC(=O)[C@@H]1CCCN1C(=O)CCCNC(=O)[C@H](Cc1ccccc1)N(C)C(=O)CNC(=O)[C@@H](C)NC(=O)[C@@H](N)Cc1ccc(O)cc1)C(=O)N[C@@H](Cc1c[nH]c2ccccc12)C(=O)NCc1cc(C(F)(F)F)cc(C(F)(F)F)c1 [AKG123, H-Tyr-D-Ala-Gly-NMePhe-γ-Abu-Pro-Leu-Trp-NH-Bn(3′,5′-(CF3)2)] | 424 ± 148 nM | 5.89 | 9 | −7.73 ± 0.07 |  |  |  |  |  |  | Kb (NK1R): 2.3 ± 0.7 nM; Ki (DOR [2]): 3 nM; IC50 (DOR [4]): 50.1 ± 17.4 nM
CC(C)C[C@H](NC(=O)[C@@H]1CCCN1C(=O)CCCCCNC(=O)[C@H](Cc1ccccc1)N(C)C(=O)CNC(=O)[C@@H](C)NC(=O)[C@@H](N)Cc1ccc(O)cc1)C(=O)N[C@@H](Cc1c[nH]c2ccccc12)C(=O)NCc1cc(C(F)(F)F)cc(C(F)(F)F)c1 [AKG124, H-Tyr-D-Ala-Gly-NMePhe-[4]6-Ahx-Pro-Leu-Trp-NH-Bn(3′,5′-(CF3)2)] | 255 ± 71.2 nM | 72.4 | 7 | −7.80 ± 0.09 |  |  | None at 100 nM | 7/1 |  | 1/36 | Kb (NK1R): 11.2 ± 3.1 nM; IC50 (DOR [4]): 36.8 ± 13.6 nM
CC(C)C[C@H](NC(=O)[C@@H]1CCCN1C(=O)[C@H](CO)NC(=O)[C@H](Cc1ccccc1)N(C)C(=O)CNC(=O)[C@@H](C)NC(=O)[C@@H](N)Cc1ccc(O)cc1)C(=O)N[C@@H](Cc1c[nH]c2ccccc12)C(=O)NCc1cc(C(F)(F)F)cc(C(F)(F)F)c1 [AKG126] (H-Y[dA]G[NMeF]SPLW-{NH(3,5-(CF3)2-benzyl)}) | 240 nM | 148 | 2 | −8.30 ± 0.11 | 25.9 ± 6.69 | 9 | None at 30 nM | 9/1 | 1 | 1/37 | Kb (NK1R; [5]): 17 nM and 16.5 nM; IC50 (MOR [1]; head of Table IX, read-out: GPI (MOR) ID50): 237 ± 29.2 nM; binding selectivity for MOR over DOR (MOR [3]): 31 times; Ki^μ/Ki^δ (MOR [3]): 1/31
Cc1cc(O)cc(C)c1C[C@H](N)C(=O)N[C@H](C)C(=O)NCC(=O)N(C)[C@@H](Cc1ccc(F)cc1)C(=O)N1CCC[C@H]1C(=O)N[C@@H](CC(C)C)C(=O)N[C@@H](Cc1c[nH]c2ccccc12)C(=O)NCc1cc(C(F)(F)F)cc(C(F)(F)F)c1 [AKG128, H-Dmt-D-Ala-Gly-NMePhe(4-F)-Pro-Leu-Trp-NH-Bn(3′,5′-(CF3)2)] | 76.5 nM |  | 1 | −8.55 ± 0.18 | 11.5 ± 5.6 | ~7 | None at 30 nM |  |  | 1/13 | Kb (NK1R; [5]): 11.2 ± 2.7 nM; Ki^μ/Ki^δ (MOR [3]): 1/4
CC(C)C[C@H](NC(=O)[C@@H]1CCCN1C(=O)Cc1ccc(NC(=O)[C@H](Cc2ccccc2)N(C)C(=O)CNC(=O)[C@@H](C)NC(=O)[C@@H](N)Cc2ccc(O)cc2)cc1)C(=O)N[C@@H](Cc1c[nH]c2ccccc12)C(=O)NCc1cc(C(F)(F)F)cc(C(F)(F)F)c1 [AKG177, H-Tyr-D-Ala-Gly-NMePhe-4-Apac-Pro-Leu-Trp-NH-Bn(3′,5′-(CF3)2)] | 41 nM and 40.8 nM | 148 | 1 | −8.68 ± 0.19 |  |  | None at 100 nM | 1/1 |  | 1/14 | Kb (NK1R): 39.2 ± 7.9 nM; Ki (DOR [2]): 70 nM; Ki^μ/Ki^δ (MOR [3]): 1/70; IC50 (DOR [4]): 35 ± 7.89 nM
CC(C)C[C@H](NC(=O)[C@@H]1CCCN1C(=O)Cc1ccc(CNC(=O)[C@H](Cc2ccccc2)N(C)C(=O)CNC(=O)[C@@H](C)NC(=O)[C@@H](N)Cc2ccc(O)cc2)cc1)C(=O)N[C@@H](Cc1c[nH]c2ccccc12)C(=O)NCc1cc(C(F)(F)F)cc(C(F)(F)F)c1 [AKG178, H-Tyr-D-Ala-Gly-NMePhe-4-Ampa-Pro-Leu-Trp-NH-Bn(3′,5′-(CF3)2)] | 650 nM and 654 nM |  |  |  |  | 15 | None at 300 nM | 15/1 |  | 1/21 | Kb (NK1R; [8]): 76 nM
Cc1cc(O)cc(C)c1C[C@H](N)C(=O)N[C@H](C)C(=O)N(C)CC(=O)N(C)[C@@H](Cc1ccccc1)C(=O)N1CCC[C@H]1C(=O)N[C@@H](CC(C)C)C(=O)N[C@@H](Cc1c[nH]c2ccccc12)C(=O)NCc1cc(C(F)(F)F)cc(C(F)(F)F)c1 [AKG182, H-Dmt-D-Ala-NMeGly-NMePhe-Pro-Leu-Trp-NH-Bn(3′,5′-(CF3)2)] |  |  |  |  |  |  |  |  |  | 1/22 | Ki (rNK1): 110 ± 18.3 nM
Cc1cc(O)cc(C)c1C[C@H](N)C(=O)N[C@H](C)C(=O)NCC(=O)N[C@@H](Cc1ccc(Cl)cc1)C(=O)N1CCC[C@H]1C(=O)N[C@@H](CC(C)C)C(=O)N[C@@H](Cc1c[nH]c2ccccc12)C(=O)NCc1cc(C(F)(F)F)cc(C(F)(F)F)c1 [AKG191, H-Dmt-D-Ala-Gly-Phe(4-Cl)-Pro-Leu-Trp-NH-Bn(3′,5′-(CF3)2)] | 166 ± 71.6 nM |  | 2 | −8.33 ± 0.09 | 25.4 ± 7.7 |  | None at 300 nM |  |  | 1/9 | 
CC(C)C[C@H](NC(=O)[C@@H]1CCCN1C(=O)[C@H](Cc1ccccc1)NC(=O)[C@H](Cc1c[nH]c2ccccc12)NC(=O)[C@@H]1CCCN1C(=O)[C@@H](N)Cc1ccc(O)cc1)C(=O)N[C@@H](Cc1c[nH]c2ccccc12)C(=O)NCc1cc(C(F)(F)F)cc(C(F)(F)F)c1 [AKG221, H-Tyr-Pro-Trp-Phe-Pro-Leu-Trp-NH-Bn(3′,5′-(CF3)2)] (H-YPWFPLW-{NH(3,5-(CF3)2-benzyl)}) |  |  |  |  |  |  |  |  | 3.34 ± 0.32 |  | Ki (rNK1): 38.5 ± 3.6 nM
CC(C)C[C@H](NC(=O)[C@@H]1CCCN1C(=O)[C@H](Cc1ccccc1)N(C)C(=O)[C@H](Cc1c[nH]c2ccccc12)NC(=O)[C@@H]1CCCN1C(=O)[C@@H](N)Cc1ccc(O)cc1)C(=O)N[C@@H](Cc1c[nH]c2ccccc12)C(=O)NCc1cc(C(F)(F)F)cc(C(F)(F)F)c1 [AKG223, H-Tyr-Pro-Trp-NMePhe-Pro-Leu-Trp-NH-Bn(3′,5′-(CF3)2)] (H-YPW[NMeF]PLW-{NH(3,5-(CF3)2-benzyl)}) |  |  |  |  |  |  |  |  | 3.59 ± 0.3 |  | Ki (rNK1): 10.1 ± 6.3 nM
CC(C)C[C@H](NC(=O)[C@@H]1CCCN1C(=O)[C@H](Cc1ccccc1)N(C)C(=O)[C@H](Cc1c[nH]c2ccccc12)N(C)C(=O)[C@@H]1CCCN1C(=O)[C@@H](N)Cc1ccc(O)cc1)C(=O)N[C@@H](Cc1c[nH]c2ccccc12)C(=O)NCc1cc(C(F)(F)F)cc(C(F)(F)F)c1 [AKG225, H-Tyr-Pro-NMeTrp-NMePhe-Pro-Leu-Trp-NH-Bn(3′,5′-(CF3)2)] (H-YP[NMeW][NMeF]PLW-{NH(3,5-(CF3)2-benzyl)}) |  |  |  |  |  |  |  |  | 14.8 ± 1.4 | 1/20 | Ki (rNK1): 302 ± 78.5 nM
